Patent publication US8674136B2, “Aromatic butan-2-ol compounds and preparation and uses thereof” (Institute of Pharmacology and Toxicology Academy of …, priority 2010, dated 2014)
Converted amounts (≈) assume the structure as drawn.

Tests used:
[1] = system: Standard Strain H37Rv of mycobacterium tuberculosis; experiment: MIC against standard strain H37Rv by Microplate Alamar Blue Assay (MABA); format: cell-based; details: M. tuberculosis H37Rv, 7H9 medium, 37° C.
[2] = system: male BALB/C mice; experiment: Acute toxicity in mice, single oral intragastric administration; format: in vivo; details: observed 7 days
Description: (§1) Experiments on the Acute Toxicity of the Compounds
(§2) The acute toxicities of Compounds 4, 16 and 25 were in vivo evaluated preliminarily in mice. Animal: male BALB/C mice, 18-20 g/mouse, 3 mice for blank control group, and 5 mice for each of test groups.
(§3) Method: Suspensions of Compound 25: 49 mg/ml (depended on the total amount of the compound provided); Compounds 4 and 16: 50 mg/ml were prepared in 0.5% CMC to separately. Each mouse of the 3 groups was subjected to oral intragastric administration of 0.2 ml of drug, and the doses were separately as follows: Compound 25: 490 mg/kg; and Compounds 4 and 16: 500 mg/kg. The blank control was administered with water. The consciousness, behavior and death of mice were observed every day after administration until 7 days of administration, and the survived mice were dissected after 7 days to observe pathological changes of tissues.

[3] = as above; format: in vivo; details: male, BALB/C, mouse, in vivo, single oral intragastric administration, preliminary
Description: as §1, §2, §3

| SMILES | MIC [1] | melting point | death or abnormality of the animals ([2]; single dose of 500 mg/kg) | LD50 at 7 days [3] | death or abnormality of the animals ([2]; single dose of 490 mg/kg) |
| --- | --- | --- | --- | --- | --- |
| COc1cc2ccccc2cc1C(c1ccc(Cl)cc1)C(O)(CCN(C)C)c1ccc(F)cc1F (stereo not shown) [Compound 14, 1-(4-chlorophenyl)-2-(2,4-difluorophenyl)-1-[2-(3-methoxy)naphthyl]-4-(N,N-dimethylamino)-butan-2-ol] | 0.754 µg/mL (≈ 1.52 µM) | 190.6 to 192.4 °C | – | – | – |
| COc1cc2ccc(Br)cc2cc1C(c1ccc(Cl)cc1)C(O)(CCN(C)C)c1cccc(Br)c1 (stereo not shown) [Compound 16, 1-(4-chlorophenyl)-2-(3-bromophenyl)-1-[2-(7-bromo-3-methoxy)naphthyl]-4-(N,N-dimethylamino)-butan-2-ol] | 0.184 µg/mL (≈ 0.298 µM) | – | no death nor abnormality | ≥ 500 mg/kg | – |
| COc1cc2ccc(Br)cc2cc1C(c1ccccc1)C(O)(CCN(C)C)c1cccc2ccccc12 (stereo not shown) [Compound 25, 1-phenyl-2-(1-naphthyl)-1-[2-(7-bromo-3-methoxy)naphthyl]-4-(N,N-dimethylamino)-butan-2-ol] | 0.594 µg/mL (≈ 1.07 µM) | – | – | ≥ 490 mg/kg | no death nor abnormality |
| COc1cc2ccc(Br)cc2cc1C(c1ccc(C)cc1)C(O)(CCN(C)C)c1cccc2ccccc12 (stereo not shown) [Compound 30, 1-(4-methylphenyl)-2-(1-naphthyl)-1-[2-(7-bromo-3-methoxy)naphthyl]-4-(N,N-dimethylamino)-butan-2-ol] | 1.000 µg/mL (≈ 1.76 µM) | 189.5 to 190.8 °C | – | – | – |
